Assay results published in patent publication US20260226470A1, “HEPATITIS B COMBINATION THERAPIES” (Aligos Therapeutics, Inc., priority 2023, published 2026).
Oligonucleotides are written 5' to 3', each unit as a sugar letter and its base; * is a phosphorothioate linkage, no mark a phosphodiester; rarer units and linkages stand in square brackets, end groups in braces. Plain capitals give the bases only. m = 2'-O-methyl; f = 2'-fluoro

Key:
HBV = test: siRNA treatment followed by CAM add-on, in vivo in mice, Example 3; details: FIGS. 13A-13B, 16A-16B; CAM 30 mpk BID day 63-98; siRNA-2 10 mpk SC QW day 0-98
Experimental: In the following example, initial treatment with an siRNA, followed by CAM add-on, was tested in vivo in mice.
The study design is described below in Table 9.
QW dosing of siRNA-2 was continued until the end of the study (day 98). HBV DNA, HBsAg, and HBeAg were measured weekly through day 98.

[1] = tested on: adeno-associated virus-hepatitis B virus (AAV-HBV) mice; test: In vivo compound efficacy in AAV-HBV mice, Example 1 (Compound 1 and siRNA-1); set-up: species or system Mouse: C57BL/6; details: plasma, follow-up to Day 189
Experimental: In vivo compound efficacy was evaluated in adeno-associated virus-hepatitis B virus (AAV-H-BV) mice. Materials and methods are presented below in tables 1-4. Table F describes the nucleic acid sequences used for siRNA-1, an siRNA. The sequences are described using modified nucleotide annotations found in Table B.
Live Phase Parameters: Based on plasma viral markers levels and body weight, 20 mice were selected and randomized into five groups for treatment. Checks were made for dead and/or moribund animals daily. Overt changes were recorded. Body weight was measured twice weekly during Day 0-97, and once weekly during Day 98-189.
Vehicle (Group 01) and Compound 1 at 55 mg/kg/dose (Groups 02, 04 and 05) were administered by oral gavage twice daily during Day 0-97. siRNA-1 at 5 mg/kg/dose was injected subcutaneously on Days 0, 14, 42 and 70 for Groups 03 and 04, and on Days 70, 84, and 102 for Group 05.
Plasma samples of 50 μL per mouse were prepared once weekly prior to dosing during Day 0-189. The samples were used for quantitative detections of HBsAg, HBeAg, and HBV DNA. Mice were sacrificed on Day 189.

Compound	reduction of HBV DNA (HBV)	HBsAg effect after end of treatment (sustained or rebound) ([1]; FIGS. 3A-3B)	HBeAg effect after end of treatment (sustained or rebound) ([1]; FIGS. 4A-4B)
C=C[C@H](C)Nc1nc2c(c(=O)n1-c1ccc(C(=O)NC)cc1)C[C@@H](C)N(C(=O)c1ccc(Br)c(C(F)(F)F)c1)C2 [Compound 2, 4-((R)-7-(4-bromo-3-(trifluoromethyl)benzoyl)-2-(((S)-but-3-en-2-yl)amino)-6-methyl-4-oxo-5,6,7,8-tetrahydropyrido[3,4-d]pyrimidin-3(4H)-yl)-N-methylbenzamide]	good reduction of HBV DNA	–	–
siRNA-1: siRNA with SEQ ID NO: 2 (Sense) and SEQ ID NO: 3 (Antisense), modified nucleotides per Table B (sense mC*mC*mGmUfGmUfGfCfAmCmUmUmCmGmCmUmUmCmA; antisense mU*fG*mAmAfGmCmGfAmAmGmUmGmCfAmCmAfCmGmG*mU*mC)	–	rebound is observed	rebound is observed
